This assay has as its target Poly [ADP-ribose] polymerase 1 (Homo sapiens, UniProt P09874). The experiment in a line: Inhibition of PARP1 (unknown origin).

Poly [ADP-ribose] polymerase 1, sequence (P09874 whole entry): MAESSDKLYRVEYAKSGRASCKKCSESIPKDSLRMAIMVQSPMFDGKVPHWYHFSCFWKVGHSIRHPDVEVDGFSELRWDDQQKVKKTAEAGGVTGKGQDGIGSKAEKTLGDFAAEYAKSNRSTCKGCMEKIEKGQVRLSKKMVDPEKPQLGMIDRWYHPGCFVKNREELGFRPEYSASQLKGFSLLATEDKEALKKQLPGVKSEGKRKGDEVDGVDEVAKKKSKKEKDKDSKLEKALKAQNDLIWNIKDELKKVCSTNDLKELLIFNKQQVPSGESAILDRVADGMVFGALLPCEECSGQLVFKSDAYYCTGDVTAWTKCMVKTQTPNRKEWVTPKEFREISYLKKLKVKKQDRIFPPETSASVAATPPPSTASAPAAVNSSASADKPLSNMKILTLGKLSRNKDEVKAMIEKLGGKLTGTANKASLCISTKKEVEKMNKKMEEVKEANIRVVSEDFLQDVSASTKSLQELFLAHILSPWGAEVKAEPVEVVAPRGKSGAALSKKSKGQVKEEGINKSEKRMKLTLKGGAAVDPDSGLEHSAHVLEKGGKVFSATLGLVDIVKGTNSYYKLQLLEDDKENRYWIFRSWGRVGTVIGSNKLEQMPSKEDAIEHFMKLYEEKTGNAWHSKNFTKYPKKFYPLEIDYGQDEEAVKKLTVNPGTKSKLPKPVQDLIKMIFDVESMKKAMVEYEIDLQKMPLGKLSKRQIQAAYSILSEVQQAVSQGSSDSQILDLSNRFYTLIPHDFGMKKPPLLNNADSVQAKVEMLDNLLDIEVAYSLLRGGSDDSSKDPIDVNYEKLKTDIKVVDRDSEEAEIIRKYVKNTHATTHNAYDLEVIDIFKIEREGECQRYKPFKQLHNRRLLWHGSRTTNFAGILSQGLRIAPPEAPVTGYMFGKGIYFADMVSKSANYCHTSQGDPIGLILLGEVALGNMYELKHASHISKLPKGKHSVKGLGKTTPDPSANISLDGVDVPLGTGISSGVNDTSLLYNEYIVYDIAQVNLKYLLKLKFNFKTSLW

In the case of `O=c1cc(O)cc2oc(-c3ccc(O)c(-c4c(O)cc(O)c5c(=O)cc(-c6ccc(O)cc6)oc45)c3)cc(O)c1-2`, the IC50 amounted to 259 nM.

Broadly, the IC50 is the concentration that gives 50% inhibition.

The record behind these values is BindingDB's records for PubMed 34843914 (China Pharmaceutical University, 2022).
